Measured values reported in PubChem BioAssay (NCI).
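Five concentrations, 48 hours, 96-well plates. The concentration for full growth arrest is given as TGI.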

tested on: M14 melanoma; experiment: NCI tumour cell line growth inhibition, 48 h

| Compound | TGI |
| --- | --- |
| COC(=O)C12CC3CC(CC(C(=O)O)(C3)C1)C2 | > 100 µM |
| CCCCCCc1cc(C(=O)Nc2ccc(Cl)cc2)nc(=S)[nH]1 | > 100 µM |
| COc1cc2cc3c4cc(OC)c(OC)cc4cc[n+]3c(C)c2cc1OC (tested in a mixture with another compound) | > 100 µM |
| CCN(CC)C1CC(O[C@H]2C[C@](O)(C(=O)CO)Cc3c(O)c4c(c(O)c32)C(=O)c2c(OC)cccc2C4=O)OC(C)C1O (some centres undefined) | 0.31 µM |

tested on: HOP-62 NSCLC; experiment: NCI tumour cell line growth inhibition, 48 h

| Compound | TGI |
| --- | --- |
| CC(=O)O[C@H]1CCC2[C@@H]3CC[C@]4(C)CC(=O)C=C[C@]4(C)C3CC[C@@]21C (some centres undefined) | 97.9 µM |
| O=C(CCc1nc(=S)[nH][nH]1)Nc1ccccc1Cl | > 100 µM |
| O=C(CC(=O)n1nc(-c2ccccc2)c(N=Nc2ccc(Cl)cc2)c1-c1ccccc1)Nc1ccc(Cl)cc1 | > 100 µM |
| COC(=O)C12CC3CC(CC(C(=O)O)(C3)C1)C2 | > 100 µM |
| CCCCCCc1cc(C(=O)Nc2ccc(Cl)cc2)nc(=S)[nH]1 | > 100 µM |
| COc1cc2cc3c4cc(OC)c(OC)cc4cc[n+]3c(C)c2cc1OC (tested in a mixture with another compound) | > 100 µM |
| CCN(CC)C1CC(O[C@H]2C[C@](O)(C(=O)CO)Cc3c(O)c4c(c(O)c32)C(=O)c2c(OC)cccc2C4=O)OC(C)C1O (some centres undefined) | 0.455 µM |

tested on: SNB-75 CNS; experiment: NCI tumour cell line growth inhibition, 48 h

| Compound | TGI |
| --- | --- |
| CC(=O)O[C@H]1CCC2[C@@H]3CC[C@]4(C)CC(=O)C=C[C@]4(C)C3CC[C@@]21C (some centres undefined) | > 93.1 µM |
| O=C(CCc1nc(=S)[nH][nH]1)Nc1ccccc1Cl | > 100 µM |
| O=C(CC(=O)n1nc(-c2ccccc2)c(N=Nc2ccc(Cl)cc2)c1-c1ccccc1)Nc1ccc(Cl)cc1 | > 100 µM |
| COC(=O)C12CC3CC(CC(C(=O)O)(C3)C1)C2 | > 100 µM |
| COc1cc2cc3c4cc(OC)c(OC)cc4cc[n+]3c(C)c2cc1OC (tested in a mixture with another compound) | > 88.3 µM |
| CCN(CC)C1CC(O[C@H]2C[C@](O)(C(=O)CO)Cc3c(O)c4c(c(O)c32)C(=O)c2c(OC)cccc2C4=O)OC(C)C1O (some centres undefined) | 0.184 µM |

tested on: NCI-H522 lung; experiment: NCI tumour cell line growth inhibition, 48 h

| Compound | TGI |
| --- | --- |
| CC(=O)O[C@H]1CCC2[C@@H]3CC[C@]4(C)CC(=O)C=C[C@]4(C)C3CC[C@@]21C (some centres undefined) | 76.9 µM |
| O=C(CCc1nc(=S)[nH][nH]1)Nc1ccccc1Cl | > 100 µM |
| O=C(CC(=O)n1nc(-c2ccccc2)c(N=Nc2ccc(Cl)cc2)c1-c1ccccc1)Nc1ccc(Cl)cc1 | > 100 µM |
| COC(=O)C12CC3CC(CC(C(=O)O)(C3)C1)C2 | > 100 µM |
| CCCCCCc1cc(C(=O)Nc2ccc(Cl)cc2)nc(=S)[nH]1 | > 100 µM |
| COc1cc2cc3c4cc(OC)c(OC)cc4cc[n+]3c(C)c2cc1OC (tested in a mixture with another compound) | > 100 µM |
| CCN(CC)C1CC(O[C@H]2C[C@](O)(C(=O)CO)Cc3c(O)c4c(c(O)c32)C(=O)c2c(OC)cccc2C4=O)OC(C)C1O (some centres undefined) | 0.121 µM |

tested on: MDA-MB-435; experiment: NCI tumour cell line growth inhibition, 48 h

| Compound | TGI |
| --- | --- |
| CC(=O)O[C@H]1CCC2[C@@H]3CC[C@]4(C)CC(=O)C=C[C@]4(C)C3CC[C@@]21C (some centres undefined) | 94.7 µM |
| COc1cc2cc3c4cc(OC)c(OC)cc4cc[n+]3c(C)c2cc1OC (tested in a mixture with another compound) | > 100 µM |

tested on: SR leukemia; experiment: NCI tumour cell line growth inhibition, 48 h

| Compound | TGI |
| --- | --- |
| O=C(CCc1nc(=S)[nH][nH]1)Nc1ccccc1Cl | > 100 µM |
| O=C(CC(=O)n1nc(-c2ccccc2)c(N=Nc2ccc(Cl)cc2)c1-c1ccccc1)Nc1ccc(Cl)cc1 | > 100 µM |
| COC(=O)C12CC3CC(CC(C(=O)O)(C3)C1)C2 | > 100 µM |
| CCCCCCc1cc(C(=O)Nc2ccc(Cl)cc2)nc(=S)[nH]1 | > 100 µM |
| COc1cc2cc3c4cc(OC)c(OC)cc4cc[n+]3c(C)c2cc1OC (tested in a mixture with another compound) | > 100 µM |

tested on: SK-MEL-28 melanoma; experiment: NCI tumour cell line growth inhibition, 48 h

| Compound | TGI |
| --- | --- |
| CC(=O)O[C@H]1CCC2[C@@H]3CC[C@]4(C)CC(=O)C=C[C@]4(C)C3CC[C@@]21C (some centres undefined) | 33.9 µM |
| O=C(CCc1nc(=S)[nH][nH]1)Nc1ccccc1Cl | > 100 µM |
| O=C(CC(=O)n1nc(-c2ccccc2)c(N=Nc2ccc(Cl)cc2)c1-c1ccccc1)Nc1ccc(Cl)cc1 | > 100 µM |
| COC(=O)C12CC3CC(CC(C(=O)O)(C3)C1)C2 | > 100 µM |
| COc1cc2cc3c4cc(OC)c(OC)cc4cc[n+]3c(C)c2cc1OC (tested in a mixture with another compound) | > 100 µM |
| CCN(CC)C1CC(O[C@H]2C[C@](O)(C(=O)CO)Cc3c(O)c4c(c(O)c32)C(=O)c2c(OC)cccc2C4=O)OC(C)C1O (some centres undefined) | 0.216 µM |

tested on: UACC-62 melanoma; experiment: NCI tumour cell line growth inhibition, 48 h

| Compound | TGI |
| --- | --- |
| CC(=O)O[C@H]1CCC2[C@@H]3CC[C@]4(C)CC(=O)C=C[C@]4(C)C3CC[C@@]21C (some centres undefined) | 30.4 µM |
| O=C(CCc1nc(=S)[nH][nH]1)Nc1ccccc1Cl | > 100 µM |
| O=C(CC(=O)n1nc(-c2ccccc2)c(N=Nc2ccc(Cl)cc2)c1-c1ccccc1)Nc1ccc(Cl)cc1 | > 100 µM |
| COC(=O)C12CC3CC(CC(C(=O)O)(C3)C1)C2 | > 100 µM |
| COc1cc2cc3c4cc(OC)c(OC)cc4cc[n+]3c(C)c2cc1OC (tested in a mixture with another compound) | > 100 µM |
| CCN(CC)C1CC(O[C@H]2C[C@](O)(C(=O)CO)Cc3c(O)c4c(c(O)c32)C(=O)c2c(OC)cccc2C4=O)OC(C)C1O (some centres undefined) | 0.0968 µM |

tested on: SF-539 CNS; experiment: NCI tumour cell line growth inhibition, 48 h

| Compound | TGI |
| --- | --- |
| CC(=O)O[C@H]1CCC2[C@@H]3CC[C@]4(C)CC(=O)C=C[C@]4(C)C3CC[C@@]21C (some centres undefined) | 31.8 µM |
| O=C(CCc1nc(=S)[nH][nH]1)Nc1ccccc1Cl | > 100 µM |
| O=C(CC(=O)n1nc(-c2ccccc2)c(N=Nc2ccc(Cl)cc2)c1-c1ccccc1)Nc1ccc(Cl)cc1 | > 100 µM |
| COC(=O)C12CC3CC(CC(C(=O)O)(C3)C1)C2 | > 100 µM |
| CCCCCCc1cc(C(=O)Nc2ccc(Cl)cc2)nc(=S)[nH]1 | > 100 µM |
| COc1cc2cc3c4cc(OC)c(OC)cc4cc[n+]3c(C)c2cc1OC (tested in a mixture with another compound) | > 100 µM |
